One assay addresses T1, CDK1/cycA1 (Homo sapiens, UniProt P06493).
T1 construct: purchased ProQinase GmbH
Description: In vitro kinase assay (PKLight luciferase ATP readout), CDK1. The class given is biochemical. As to conditions: ATP at Km; read-out: In vitro Kinase Inhibition CDK1 IC50. The protocol: (§1) Purified recombinant CDK1/cycA1, CDK2/cycA1, CDK4/cycD1, CDK5/p35NCK, CDK6/cycD1, CDK7/CycH/MAT1, and CDK9/CycT1 were purchased from ProQinase GmbH. Kinase assays were performed according to manufacturer's protocols. Rb-CTF (ProQinase GmbH) (cat number: 0040-0000-6) was used as the kinase substrate for CDK1, CDK2, CDK4, and CDK6 kinases. […] A luciferase assay (PKLight assay; Cambrex) was used to determine ATP remaining at the end of the kinase reaction, which provides a measure of kinase activity, according to the manufacturer's protocols.
(§2) Kinase assays were carried out by incubation of increasing amounts of test compound with purified recombinant CDK-Cyclin complex, followed by measurement of free ATP remaining in the reaction using the luciferase assay kit (PKLight, Cambrex) which therefore provided a measure of inhibition for the specific CDK.
(§3) 5 μL of 1× kinase buffer (Cell Signalling Technologies) was mixed with 200 ng CDK1, 200 ng CDK2, 50 ng CDK4, 100 ng CDK5, or 200 ng CDK6 with 5 μg Rb-CTF and 300 ng CDK7 or 200 ng CDK9 with 500 μM RNA Poll II CTD peptide. […] The mixture was incubated at 30° C. for 30 minutes. The reaction is stopped with 20 μL of Stop Solution (provided in the PKLight kit) for 10 minutes at room temperature. Then 40 μL of the luciferase mix was added to the reaction mixture which was incubated for a further 10 minutes at room temperature and measured using the Tecan Infinite 2000 plate reader. GraphPad Prism Software was used to generate standard curve and determine the IC50's for each CDK.

For the next assay, the target named is T2, CDK7/CycH/MAT1 (Homo sapiens, UniProt P50613).
T2 construct: purchased ProQinase GmbH
Description: In vitro kinase assay (PKLight luciferase ATP readout), CDK7. The class given is biochemical. As to conditions: for pIC50: ATP at Km, read-out: In vitro Kinase Inhibition CDK7 IC50; for Selectivity CDK1/CDK7: ratio of CDK1 IC50 to CDK7 IC50; for Selectivity CDK2/CDK7: ratio of CDK2 IC50 to CDK7 IC50. The method, then:
as §1, §2, §3

The target of another assay is T3, CDK2/cycA1 (Homo sapiens, UniProt P24941).
T3 construct: purchased ProQinase GmbH
Description: In vitro kinase assay (PKLight luciferase ATP readout), CDK2. The assay is classed as biochemical. To be noted: ATP at Km; read-out: In vitro Kinase Inhibition CDK2 IC50. The protocol: as §1, §2, §3

The subject of the next assay is HCT116 cells. Description: Cell growth inhibition assay (sulforhodamine B), HCT116. To be noted: Homo sapiens, HCT-116; 72 hours, SRB assay; read-out: Growth Inhibition, GI50 HCT116. The class given is cell-based. The protocol:
(§4) All cells were purchased from the American Type Culture Collection (ATCC) and MCF7 cells were routinely cultured in Dulbecco's Modified Eagle's Medium (DMEM) supplemented with 10% fetal calf serum (FCS) (First Link) and HCT116 cells were routinely cultured in Roswell Park Memorial Instititute Medium (RPMI) supplemented with 10% FCS. Cell growth was assessed using a known sulforhodamine B assay (see, e.g., Skehan et al., 1990).
(§5) MCF-7 cells purchased from ATCC (USA) were routinely passaged in DMEM, supplemented with 10% FCS and HCT116 cells purchased from ATCC (USA) were routinely passaged in RPMI supplemented with 10% FCS and kept in a 37° C. incubator with 5% CO2. The growth assay for both cell lines was performed in the appropriate media using the exact same protocol as described here. For the growth assay, 5000 cells were seeded into each well of 96-well plates in DMEM containing 10% FCS. Test compounds prepared in DMSO were added to the medium at concentrations ranging from 0.00038-100 μM. The cells were incubated for a further 72 hours, at which time they were fixed by the addition of 100 μL/well of ice-cold 40% trichloroacetic acid (TCA). The plates were left for 1 hour at 4° C., washed in water and 100 μL of 0.4% (w/v) sulforhodamine (SRB; Sigma-Aldrich, UK) prepared in 1% acetic acid was added. Plates were washed in 1% acetic acid to remove excess SRB reagent, air dried, and bound dye was solubilized by the addition of 100 μL of 10 mM tris base. The plates were read at 492 nm using a plate reader.
A general note: The SRB assay estimates cell density from bound dye.

For another assay, the system named is MCF7 cells. Description: Cell growth inhibition assay (sulforhodamine B), MCF7. The assay is classed as cell-based. As to conditions: Homo sapiens, 72 hours, SRB assay, read-out: Growth Inhibition, GI50 MCF7. The protocol: as §4, §5

pIC50: −log10 of the molar value. Where a name gives a salt, the structure may show the parent alone.

Consider twelve compounds from patent US11566029B2, “Pyrazolo[1,5-a]pyrimidine-5,7-diamine compounds as CDK inhibitors and their therapeutic use” (CANCER RESEARCH TECHNOLOGY LIMITED, priority 2014, dated 2023).

T2 sequence (P50613 whole entry): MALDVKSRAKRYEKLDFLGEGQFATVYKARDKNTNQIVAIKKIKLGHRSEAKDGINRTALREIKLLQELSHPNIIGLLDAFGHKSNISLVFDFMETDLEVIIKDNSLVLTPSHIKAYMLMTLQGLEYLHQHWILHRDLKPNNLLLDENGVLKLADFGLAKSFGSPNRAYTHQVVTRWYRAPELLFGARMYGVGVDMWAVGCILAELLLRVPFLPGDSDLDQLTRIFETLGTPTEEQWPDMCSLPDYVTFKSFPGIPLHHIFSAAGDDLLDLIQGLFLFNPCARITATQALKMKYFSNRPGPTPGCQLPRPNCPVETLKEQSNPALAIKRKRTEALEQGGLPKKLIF
T2 sequence (P51946 whole entry partner): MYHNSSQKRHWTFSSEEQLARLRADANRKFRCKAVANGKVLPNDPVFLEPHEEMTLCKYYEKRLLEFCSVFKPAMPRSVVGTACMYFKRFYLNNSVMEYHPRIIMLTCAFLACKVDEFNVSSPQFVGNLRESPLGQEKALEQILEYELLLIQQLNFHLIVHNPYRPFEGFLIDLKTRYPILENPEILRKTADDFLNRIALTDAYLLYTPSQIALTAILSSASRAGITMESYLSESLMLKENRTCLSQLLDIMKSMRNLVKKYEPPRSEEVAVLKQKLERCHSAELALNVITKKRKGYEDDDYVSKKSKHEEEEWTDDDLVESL
T2 sequence (P51948 whole entry partner): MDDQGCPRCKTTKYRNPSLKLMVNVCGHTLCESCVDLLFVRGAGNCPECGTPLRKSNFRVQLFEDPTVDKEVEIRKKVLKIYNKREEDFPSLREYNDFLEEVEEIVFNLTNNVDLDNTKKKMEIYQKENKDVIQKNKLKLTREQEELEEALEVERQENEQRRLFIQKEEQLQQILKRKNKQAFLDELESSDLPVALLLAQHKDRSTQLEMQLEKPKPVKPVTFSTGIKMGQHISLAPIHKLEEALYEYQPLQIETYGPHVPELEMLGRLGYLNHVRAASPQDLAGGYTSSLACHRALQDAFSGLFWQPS

With `CO[C@@H]1CCNCC1Nc1cc(NCc2ccccc2)n2ncc(C(C)C)c2n1` (stereo partly drawn) [PPDA-023], the pIC50 at CDK1/cycA1 is 5.92; at CDK7/CycH/MAT1, 7.22; on CDK2/cycA1 it was 6.35. Also, the “Selectivity CDK1/CDK7” value at CDK7/CycH/MAT1 is 20 fold. Also, the “Selectivity CDK2/CDK7” value on CDK7/CycH/MAT1 was found to be 7.5 fold. Further, the concentration for 50% growth inhibition (GI50) turned out to be 5600 nM in the assay on HCT116 cells and 3700 nM in the assay on MCF7 cells.

On to `CC(C)c1cnn2c(NCc3ccccc3)cc(NCC3(CO)CCNC3)nc12` (racemic) [PPDA-018, (3-((7-(Benzylamino)-3-iso-propylpyrazolo [1,5-a]pyrimidin-5ylamino)methyl)pyrrolidin-3-yl)methanol hydrochloride], for which the pIC50 on CDK1/cycA1 is 7.39; at CDK7/CycH/MAT1, 7.85; on CDK2/cycA1, 9.00. Moreover, the “Selectivity CDK1/CDK7” value on CDK7/CycH/MAT1 was found to be 2.9 fold. Also, the “Selectivity CDK2/CDK7” value on CDK7/CycH/MAT1 came to 0.1 fold. For the same compound, the GI50 in the assay with HCT116 cells is 900 nM; in the assay with MCF7 cells it was 100 nM.

With `CC(C)c1cnn2c(NCc3ccccc3)cc(NC[C@]3(O)CCNC[C@H]3O)nc12` (racemic) [PPDA-002, (3R,4R)-4-((7-(Benzylamino)-3-iso-propyl-pyrazolo[1,5-a]pyrimidin-5-ylamino)methyl)piperidine-3,4-diol hydrochloride], the pIC50 on CDK1/cycA1 is 5.86; at CDK7/CycH/MAT1, 7.74; on CDK2/cycA1, 5.69. Also, at CDK7/CycH/MAT1, the “Selectivity CDK1/CDK7” value is 77 fold. In addition, the “Selectivity CDK2/CDK7” value at CDK7/CycH/MAT1 is given as 113 fold. Also, the GI50 in the assay on HCT116 cells amounted to 5100 nM; in the assay with MCF7 cells it was 1500 nM.

Turning to `CO[C@H]1CN[C@H](CNc2cc(NCc3ccccc3)n3ncc(C(C)C)c3n2)C1` [PPDA-029], the pIC50 was 6.00 on CDK7/CycH/MAT1 and 5.55 on CDK2/cycA1. For the same compound, at CDK7/CycH/MAT1, the “Selectivity CDK2/CDK7” value was found to be 2.8 fold. Besides, the results for the GI50 in the assay with HCT116 cells and in the assay with MCF7 cells were more than 100000 nM and 17600 nM, respectively.

For `CC(C)c1cnn2c(NCc3ccccc3)cc(N[C@@H]3CNCC[C@]3(O)CO)nc12` [PPDA-025], the pIC50 is 6.55 at CDK1/cycA1, 7.11 on CDK7/CycH/MAT1 and 6.97 at CDK2/cycA1.

In the case of `CC(C)c1cnn2c(NCc3ccccc3)cc(NC3CNCC[C@]3(O)CO)nc12` (stereo partly drawn) [PPDA-025], the “Selectivity CDK1/CDK7” value on CDK7/CycH/MAT1 came to 3.7 fold. In addition, the “Selectivity CDK2/CDK7” value on CDK7/CycH/MAT1 came out at 1.4 fold. Besides, the GI50 with HCT116 cells was 23700 nM; in the assay with MCF7 cells, 10100 nM.

As to `CC(C)c1cnn2c(NCc3ccccc3)cc(NCC3CCNCC3)nc12` [XX-01, reference compound], the pIC50 at CDK7/CycH/MAT1 is 6.51. For the same compound, the GI50 in the assay on HCT116 cells worked out at 18700 nM; in the assay on MCF7 cells, 12200 nM.

Take `CC(C)c1cnn2c(NCc3ccccc3)cc(NC[C@H]3NCC[C@@H]3O)nc12` [PPDA-031]: the negative-log IC50 (pIC50) at CDK7/CycH/MAT1 is 6.33; at CDK2/cycA1 it was 6.41. Also, on CDK7/CycH/MAT1, the “Selectivity CDK2/CDK7” value turned out to be 0.8 fold. Besides, the GI50 was found to be 20400 nM in the assay on HCT116 cells and 5600 nM in the assay on MCF7 cells.

As for `CC(C)c1cnn2c(NCc3ccccc3)cc(NC[C@H]3NC[C@H](O)[C@@H]3O)nc12` [PPDA-032], the results for the negative logarithm of the IC50 (pIC50) at CDK7/CycH/MAT1 and on CDK2/cycA1 were 6.52 and 5.82, respectively. In addition, the “Selectivity CDK2/CDK7” value on CDK7/CycH/MAT1 is reported as 4.9 fold.

`CC(C)c1cnn2c(NCc3ccccc3)cc(NC[C@@H]3C[C@@H](O)CN3)nc12` [PPDA-030]: the pIC50 at CDK7/CycH/MAT1 was 7.23; on CDK2/cycA1 it was 6.00. Further, on CDK7/CycH/MAT1, the “Selectivity CDK2/CDK7” value is 17 fold. For the same compound, the values for the GI50 in the assay on HCT116 cells and in the assay with MCF7 cells were more than 100000 nM and 20200 nM, respectively.

`CC(C)c1cnn2c(NCc3ccncc3)cc(NC[C@H]3CCNC[C@@H]3O)nc12` [PPDA-003, (3R,4R)-4-((3-iso-Propyl-7-(pyridin-4-ylmethylamino)pyrazolo[1,5-a]pyrimidin-5-ylamino)methyl)piperidin-3-ol hydrochloride]: on CDK1/cycA1, the pIC50 was 5.72. Also, at CDK7/CycH/MAT1, the negative logarithm of the IC50 (pIC50) is 7.33, the “Selectivity CDK1/CDK7” value was found to be 41 fold and the “Selectivity CDK2/CDK7” value was determined as 2.5 fold. Further, the pIC50 on CDK2/cycA1 was 6.94.

For `CC(C)c1cnn2c(NCc3ccccc3)cc(NC[C@H]3CCCC[C@@H]3O)nc12` [XX-02, reference compound], the negative logarithm of the IC50 (pIC50) on CDK7/CycH/MAT1 is 6.16. Further, the GI50 was more than 100000 nM with HCT116 cells and 47000 nM with MCF7 cells.

The pIC50 is −log10 of the IC50, conventionally taken in molar units. One may read the GI50 as the concentration that inhibits growth by half.
